Laboratory results as given in paper PMC7018803, “A randomized, placebo-controlled, phase 1 study to evaluate the effects of TAK-063 on ketamine-induced changes in fMRI BOLD signal in healthy subjects” (Psychopharmacology, 2019).

Columns and labels:
[1] = test system: rodent models of cognitive impairment; parameters: method as in Shiraishi et al. [2016]; settings: ref Shiraishi et al. [2016]; cited from earlier work
[2] = Pharmacokinetics of TAK-063 in plasma after single oral dose; type: in vivo, human
Description: (§1) The Statistics Department at Takeda Development Center Americas, Inc., generated a randomization schedule before the start of the study, and this randomization schedule maintained the investigational drug blind. During randomization, subjects were assigned a four-digit randomization sequence that encoded assignment of subjects to the treatment schedule. Subjects were randomized to one of nine treatment schedules and received placebo + ketamine (regimen A) and two of the following three treatment regimens: 3 mg of TAK-063 + ketamine (regimen B), 30 mg of TAK-063 + ketamine (regimen C), and 300 mg of TAK-063 + ketamine (regimen D). […] Treatment sequences are presented in Online Resource Supplementary Table S1. The study consisted of multiple visits with a different treatment protocol on each visit. The visits were standardized and included a screening period (day − 28 to day − 2), check-in (day − 1), a treatment period (days 1), completion of treatment visit (day 2), and a follow-up visit (day 14 ± 3 days after last TAK-063 dose). After each treatment period, subjects stayed overnight at the study site for observation and were discharged on day 2. Each participant completed the study when they completed the follow-up visit after their last treatment2.
Subjects checked in on day − 1 of each treatment period during which vital signs, electrocardiogram (ECG), and laboratory safety tests were repeated. On day 1 of each treatment period, subjects received a 3-, 10-, or 30-mg TAK-063 dose or placebo tablets. Participants then relaxed, slept, or watched movies while remaining in the research environment. Ketamine (0.12 mg/kg intravenous bolus over 60 s followed by a continuous infusion of 0.31 mg/kg/h over approximately 150 min) was administered 4 h after TAK-063 or placebo (Fig. 1). This ketamine dose was based on a previous study that achieved steady-state concentrations of 75 ng/mL and provided a robust BOLD signal with minimal psychotomimetic symptoms (De Simoni et al. [2013]). […]
Blood samples were collected for the determination of TAK-063 and ketamine concentrations, and ketamine concentrations were used to verify intravenous delivery of ketamine. Blood samples for determination of TAK-063 concentration were collected at pre-dose and at 0.5, 2, 3, 4.5, 6, 8, 10, 12, and 24 h post dose. Blood samples for determination of ketamine concentration were collected at 0.5, 1, 2, and 2.5 h after administration of ketamine. The target ketamine concentration was established at 75 ng/mL. PK samples were not collected from the arm in which ketamine was administered.
This study was not powered for any comparison, and the number of subjects was considered to be suitable for fulfilling study objectives. All statistical tests were two-tailed at α = 0.05 level of significance. For the analysis of the neuroimaging battery test results, effect sizes of > 0.3 were considered potentially meaningful, even without power to detect statistical significance. PK parameters of TAK-063 were generated using WinNonlin Version 6.3. fMRI images were analyzed using SPM8 and Matlab. Percent signal change for resting state data was calculated between pre-ketamine and post-ketamine infusion based on a priori ROIs using SPM’s Anatomy Toolbox (Yurgelun-Todd et al. [2016]). Percent signal change for the working memory task was calculated for the task versus baseline in the post-ketamine condition using the same ROI used for resting state (Yurgelun-Todd et al. [2016]). An analysis of variance (ANOVA) model was used to perform the analyses for BOLD signal changes (Yurgelun-Todd et al. [2016]). Cohen’s d effect sizes were calculated as d=μt^−μp^/sp where d is the effect size and μt^ and μp^ are the least-square means for a TAK-063 dose and placebo regimen, respectively, from the ANOVA model. sp is the pooled standard deviation from both regimens. No adjustments were made for multiple comparisons.

healthy male subjects = assay: Safety assessments (adverse events, laboratory tests, ECG, vital signs); type: in vivo, human
Description: as §1
AEs, clinical laboratory results, ECG, vital signs, and suicide assessments were recorded after administration of TAK-063 and throughout the remainder of the study. Intensity of AEs was classified as mild, moderate, and severe, and each AE was assessed for association with study drug. AEs were assessed throughout the 2-day study visit, at the three treatment visits, at the study exit, and at the follow-up visit. ECG, vital signs, and clinical laboratory results were assessed at visit 1 during screening, day − 1, day 1 of each treatment period, day 2 of period 3 (study exit), the early termination visit, and the follow-up visit.
In this study, the safety set, used for demographic and safety evaluations, included subjects who receive at least one dose of study medication. The PK set included all subjects in the safety set with at least one available drug concentration measurement. The PD set included all subjects in the safety set and with at least one valid PD assessment.

rats = test system: rats; parameters: method as in Suzuki et al. [2016]; settings: ref Suzuki et al. [2016]; cited from earlier work
[3] = all 27 subjects, TAK-063 or placebo followed by ketamine
[4] = all subjects, most frequently reported AEs

Structure (SMILES): COc1cn(-c2ccc(-n3cccn3)cc2F)nc(-c2ccnn2-c2ccccc2)c1=O [TAK-063]
- MK-801 and phencyclidine-induced effects on spatial working memory, attentional set-shifting, and executive function [1]: reversed
- AUC24 ([2]; 3 mg single oral dose): 111.3 ng·h/mL
- Average concentration (Cav) ([2]; 3 mg single oral dose): 4.63 ng/mL
- AUC24 ([2]; 10 mg single oral dose): 549.2 ng·h/mL
- Average concentration (Cav) ([2]; 10 mg single oral dose): 22.9 ng/mL
- AUC24 ([2]; 30 mg single oral dose): 1296.3 ng·h/mL
- Average concentration (Cav) ([2]; 30 mg single oral dose): 53.9 ng/mL
- rate of absorption ([2]; oral administration): moderate
- Decline of plasma concentrations after Cmax ([2]; single oral dose): declined in a biphasic manner
- EPS-type AE in one subject (healthy male subjects; 30 mg): restlessness
- EPS-type AE in one subject (healthy male subjects; 300 mg): muscle tightness and restlessness
- discontinuation because of EPS (healthy male subjects; 300 mg): One subject
- tolerability of the 300-mg dose (healthy male subjects; 300 mg, led to change of dose to 10 mg): higher than expected rates of dystonia and nausea
- subjects with AEs consistent with extrapyramidal symptoms (EPS) (healthy male subjects; TAK-063 group overall): 8.0%
- subjects with AEs consistent with extrapyramidal symptoms (EPS) (number) (healthy male subjects; TAK-063 group overall): two
- subjects who experienced AEs related to the study drug (healthy male subjects; [3]): 88.9%
- subjects who experienced AEs related to the study drug (number) (healthy male subjects; [3]): 24 subjects
- severity of drug-related AEs (healthy male subjects; all subjects): mild to moderate
- fatigue (healthy male subjects; [4]): 25.9%
- nausea (healthy male subjects; [4]): 40.7%
- somnolence (healthy male subjects; [4]): 40.7%
- vomiting (healthy male subjects; [4]): 63.0%
- clinically significant changes from baseline in vital signs, clinical laboratory tests and 12-lead ECGs (healthy male subjects; baseline to post dose): No changes
- deaths or serious AEs (healthy male subjects; during the study): No deaths or serious AEs
- participants discontinuing study drug because of AEs (healthy male subjects; in vivo): one
- overall safety and tolerability (healthy male subjects; single oral doses with ketamine): safe and well tolerated
- MK-801-induced effects on hyperactivity (rats): reversed
